According to patent US20090215778A1, “Alpha-substituted Arylmethyl Piperazine Pyrazolo [1,5-alpha]Pyrimidine Amide Derivatives” (priority 2007, published 2009):
pIC50: −log10 of the molar value.

How the values were obtained:
[1] = target: T1, HIV Env six-helix bundle (6HB) structure (Human immunodeficiency virus type 1 group M subtype B, UniProt P04579); assay: Six-helix bundle (6HB) assay; type: cell-based, HIV-1 (strain RF)
T1 construct: H9 cells chronically infected with HIV-1 (H9/HIV-1RF); endogenous in cells; host or cells: H9 cells chronically infected with HIV-1 strain RF (Env is made from the virus in the infected cells, not by transfection)
T1 sequence (P04579 32-519): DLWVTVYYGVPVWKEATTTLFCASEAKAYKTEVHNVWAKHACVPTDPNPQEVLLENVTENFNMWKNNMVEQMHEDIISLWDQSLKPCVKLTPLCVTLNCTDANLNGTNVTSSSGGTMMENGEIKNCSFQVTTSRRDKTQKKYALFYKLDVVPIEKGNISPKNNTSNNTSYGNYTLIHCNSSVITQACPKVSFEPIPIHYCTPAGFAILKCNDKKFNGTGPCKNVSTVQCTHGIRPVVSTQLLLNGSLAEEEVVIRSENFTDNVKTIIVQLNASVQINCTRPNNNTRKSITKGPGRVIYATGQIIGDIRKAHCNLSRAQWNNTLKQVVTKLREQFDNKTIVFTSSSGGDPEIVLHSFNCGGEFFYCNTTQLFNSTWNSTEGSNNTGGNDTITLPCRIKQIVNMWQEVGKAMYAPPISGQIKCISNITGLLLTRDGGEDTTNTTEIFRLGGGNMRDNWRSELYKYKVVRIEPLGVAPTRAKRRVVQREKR
T1 sequence (P04579 520-865): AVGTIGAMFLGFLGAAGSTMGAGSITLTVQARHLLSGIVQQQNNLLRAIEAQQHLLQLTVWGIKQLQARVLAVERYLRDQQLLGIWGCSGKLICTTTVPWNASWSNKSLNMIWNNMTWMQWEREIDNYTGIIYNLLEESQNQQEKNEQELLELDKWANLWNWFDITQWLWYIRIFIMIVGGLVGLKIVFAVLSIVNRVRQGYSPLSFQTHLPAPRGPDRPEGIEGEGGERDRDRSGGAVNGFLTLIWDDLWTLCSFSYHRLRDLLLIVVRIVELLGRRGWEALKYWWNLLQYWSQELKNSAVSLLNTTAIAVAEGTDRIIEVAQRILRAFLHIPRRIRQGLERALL
Summary of the method: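 Chronically HIV-1 RF-infected H9 cells (12-40 days post-infection), 2.5×10^5 per well, were preincubated with compound for 30 min at 37 °C. sCD4 at 1 μg/mL was added for 1 h to trigger Env changes. 6HB-specific rabbit serum (1 h, 37 °C) was then added, followed by PE anti-rabbit (45 min, 4 °C), with flow cytometric fluorescence read-out.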

HIV-1, NL4-3 strain = assay: Virus infection assay (virus entry and single-cycle infection); type: cell-based; settings: Human immunodeficiency virus 1, NL43, TZM-b1, read-out: Nl4
Summary of the method: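 TZM-b1 cells (CD4, CXCR4, CCR5; LTR-driven lacZ/luciferase reporters) were infected with HIV-1 NL4-3 (MOI 0.01) with 80 μg/mL DEAE-dextran in the presence of test compound, 4 h at 37 °C before adding complete medium. Infection was quantified one day post-infection as chemiluminescent β-galactosidase signal.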

Compound	pIC50 [1]	pIC50 (HIV-1, NL4-3 strain)
COc1ccc(-c2nc3c(C(=O)N4CCN([C@@H](C)c5cc(F)cc(F)c5F)C[C@H]4C)cnn3c(C(F)(F)F)c2C)cc1 [methanone, [5-(4-methoxyphenyl)-6-methyl-7-(trifluoromethyl)pyrazolo[1,5-α]pyrimidin-3-yl][(2R)-2-methyl-4-[(1S)-1-(2,3,5-trifluorophenyl)ethyl]-1-piperazinyl]-]	> 6.00	> 6.00
COc1ccc(-c2nc3c(C(=O)N4CCN([C@@H](C)c5ccccn5)C[C@H]4C)cnn3c(C(F)(F)F)c2C)cc1 [methanone, [5-(4-methoxyphenyl)-6-methyl-7-(trifluoromethyl)pyrazolo[1,5-α]pyrimidin-3-yl][(2R)-2-methyl-4-[(1S)-1-(2-pyridinyl)ethyl]-1-piperazinyl]-]	> 6.00	> 6.00
COc1ccc(-c2nc3c(C(=O)N4CCN([C@@H](C)c5nccs5)C[C@H]4C)cnn3c(C(F)(F)F)c2C)cc1 [methanone, [5-(4-methoxyphenyl)-6-methyl-7-(trifluoromethyl)pyrazolo[1,5-α]pyrimidin-3-yl][(2R)-2-methyl-4-[(1S)-1-(2-thiazolyl)ethyl]-1-piperazinyl]-]	> 6.00	> 6.00
COc1ccc(-c2nc3c(C(=O)N4CCN([C@@H](C)c5cccs5)C[C@H]4C)cnn3c(C(F)(F)F)c2C)cc1 [methanone, [5-(4-methoxyphenyl)-6-methyl-7-(trifluoromethyl)pyrazolo[1,5-α]pyrimidin-3-yl][(2R)-2-methyl-4-[(1S)-1-(2-thienyl)ethyl]-1-piperazinyl]-]	> 6.00	> 6.00
COc1ccc(-c2nc3c(C(=O)N4CCN([C@@H](C)c5cc(F)c(F)c(F)c5)C[C@H]4C)cnn3c(C(F)(F)F)c2C)cc1 [methanone, [5-(4-methoxyphenyl)-6-methyl-7-(trifluoromethyl)pyrazolo[1,5-α]pyrimidin-3-yl][(2R)-2-methyl-4-[(1S)-1-(3,4,5-trifluorophenyl)ethyl]-1-piperazinyl]-]	> 6.00	> 6.00
COc1ccc(-c2nc3c(C(=O)N4CCN([C@@H](C)c5cccnc5)C[C@H]4C)cnn3c(C(F)(F)F)c2C)cc1 [methanone, [5-(4-methoxyphenyl)-6-methyl-7-(trifluoromethyl)pyrazolo[1,5-α]pyrimidin-3-yl][(2R)-2-methyl-4-[(1S)-1-(3-pyridinyl)ethyl]-1-piperazinyl]-]	> 6.00	> 6.00
COc1ccc(-c2nc3c(C(=O)N4CCN([C@@H](C)c5ccncc5)C[C@H]4C)cnn3c(C(F)(F)F)c2C)cc1 [methanone, [5-(4-methoxyphenyl)-6-methyl-7-(trifluoromethyl)pyrazolo[1,5-α]pyrimidin-3-yl][(2R)-2-methyl-4-[(1S)-1-(4-pyridinyl)ethyl]-1-piperazinyl]-]	> 6.00	> 6.00
COc1ccc(-c2nc3c(C(=O)N4CCN([C@@H](C)c5ccc(S(C)(=O)=O)cc5)C[C@H]4C)cnn3c(C(F)(F)F)c2C)cc1 [methanone, [5-(4-methoxyphenyl)-6-methyl-7-(trifluoromethyl)pyrazolo[1,5-α]pyrimidin-3-yl][(2R)-2-methyl-4-[(1S)-1-[4-(methylsulfonyl)phenyl]ethyl]-1-piperazinyl]-]	5.00 to 5.96	5.00 to 5.96
COc1ccc(-c2nc3c(C(=O)N4CCN([C@@H](C)c5ccccc5)C[C@H]4C)cnn3c(C(F)(F)F)c2C)cc1 [methanone, [5-(4-methoxyphenyl)-6-methyl-7-(trifluoromethyl)pyrazolo[1,5-α]pyrimidin-3-yl][(2R)-2-methyl-4-[(1S)-1-phenylethyl]-1-piperazinyl]-]	> 6.00	> 6.00
COc1ccc(-c2nc3c(C(=O)N4CCN([C@@H](c5ccccc5)C(F)(F)F)C[C@H]4C)cnn3c(C(F)(F)F)c2C)cc1 [methanone, [5-(4-methoxyphenyl)-6-methyl-7-(trifluoromethyl)pyrazolo[1,5-α]pyrimidin-3-yl][(2R)-2-methyl-4-[(1S)-2,2,2-trifluoro-1-phenylethyl]-1-piperazinyl]-]	> 6.00	> 6.00
COc1ccc(-c2nc3c(C(=O)N4CCN([C@@H](CO)c5ccccc5)C[C@H]4C)cnn3c(C(F)(F)F)c2F)cc1 [methanone, [6-fluoro-5-(4-methoxyphenyl)-7-(trifluoromethyl)pyrazolo[1,5-α]pyrimidin-3-yl][(2R)-4-[(1R)-2-hydroxy-1-phenylethyl]-2-methyl-1-piperazinyl]-]	> 6.00	> 6.00
COc1ccc(-c2nc3c(C(=O)N4CCN([C@@H](CO)c5ccccc5)C[C@H]4C)cnn3c(N(C)C)c2F)cc1 [methanone, [7-(dimethylamino)-6-fluoro-5-(4-methoxyphenyl)pyrazolo[1,5-α]pyrimidin-3-yl][(2R)-4-[(1R)-2-hydroxy-1-phenylethyl]-2-methyl-1-piperazinyl]-]	> 6.00	> 6.00
COc1ccc(-c2nc3c(C(=O)N4CCN(C(CN)c5ccccc5)C[C@H]4C)cnn3c(C(F)(F)F)c2C)cc1 (stereo partly drawn) [methanone, [(2R)-4-(2-amino-1-phenylethyl)-2-methyl-1-piperazinyl][5-(4-methoxyphenyl)-6-methyl-7-(trifluoromethyl)pyrazolo[1,5-α]pyrimidin-3-yl]-]	> 6.00	> 6.00
COc1ccc(-c2nc3c(C(=O)N4CCN(C(c5ccccc5)C(C)O)C[C@H]4C)cnn3c(C(F)(F)F)c2C)cc1 (stereo partly drawn) [methanone, [(2R)-4-(2-hydroxy-1-phenylpropyl)-2-methyl-1-piperazinyl][5-(4-methoxyphenyl)-6-methyl-7-(trifluoromethyl)pyrazolo[1,5-α]pyrimidin-3-yl]-]	> 6.00	> 6.00
COc1ccc(-c2nc3c(C(=O)N4CCN(C(c5ccccc5)C(C)(C)O)C[C@H]4C)cnn3c(C(F)(F)F)c2C)cc1 (stereo partly drawn) [methanone, [(2R)-4-(2-hydroxy-2-methyl-1-phenylpropyl)-2-methyl-1-piperazinyl][5-(4-methoxyphenyl)-6-methyl-7-(trifluoromethyl)pyrazolo[1,5-α]pyrimidin-3-yl]-]	> 6.00	> 6.00
COc1ccc(-c2nc3c(C(=O)N4CCN(C(CO)c5cccc6c5OC(F)(F)O6)C[C@H]4C)cnn3c(C(F)(F)F)c2C)cc1 (stereo partly drawn) [methanone, [(2R)-4-[1-(2,2-difluoro-1,3-benzodioxol-4-yl)-2-hydroxyethyl]-2-methyl-1-piperazinyl][5-(4-methoxyphenyl)-6-methyl-7-(trifluoromethyl)pyrazolo[1,5-α]pyrimidin-3-yl]-]	> 6.00	> 6.00
COc1ccc(-c2nc3c(C(=O)N4CCN(C(CO)c5cccc(F)c5F)C[C@H]4C)cnn3c(C(F)(F)F)c2C)cc1 (stereo partly drawn) [methanone, [(2R)-4-[1-(2,3-difluorophenyl)-2-hydroxyethyl]-2-methyl-1-piperazinyl][5-(4-methoxyphenyl)-6-methyl-7-(trifluoromethyl)pyrazolo[1,5-α]pyrimidin-3-yl]-]	> 6.00	> 6.00
COc1ccc(-c2nc3c(C(=O)N4CCN(C(CO)c5cccc(OC)c5OC)C[C@H]4C)cnn3c(C(F)(F)F)c2C)cc1 (stereo partly drawn) [methanone, [(2R)-4-[1-(2,3-dimethoxyphenyl)-2-hydroxyethyl]-2-methyl-1-piperazinyl][5-(4-methoxyphenyl)-6-methyl-7-(trifluoromethyl)pyrazolo[1,5-α]pyrimidin-3-yl]-]	> 6.00	> 6.00
COc1ccc(-c2nc3c(C(=O)N4CCN(C(CO)c5ccc(F)cc5F)C[C@H]4C)cnn3c(C(F)(F)F)c2C)cc1 (stereo partly drawn) [methanone, [(2R)-4-[1-(2,4-difluorophenyl)-2-hydroxyethyl]-2-methyl-1-piperazinyl][5-(4-methoxyphenyl)-6-methyl-7-(trifluoromethyl)pyrazolo[1,5-α]pyrimidin-3-yl]-]	> 6.00	> 6.00
COc1ccc(-c2nc3c(C(=O)N4CCN(C(CO)c5ccc(OC)cc5OC)C[C@H]4C)cnn3c(C(F)(F)F)c2C)cc1 (stereo partly drawn) [methanone, [(2R)-4-[1-(2,4-dimethoxyphenyl)-2-hydroxyethyl]-2-methyl-1-piperazinyl][5-(4-methoxyphenyl)-6-methyl-7-(trifluoromethyl)pyrazolo[1,5-α]pyrimidin-3-yl]-]	> 6.00	> 6.00
COc1ccc(-c2nc3c(C(=O)N4CCN(C(CO)c5cc(F)ccc5F)C[C@H]4C)cnn3c(C(F)(F)F)c2C)cc1 (stereo partly drawn) [methanone, [(2R)-4-[1-(2,5-difluorophenyl)-2-hydroxyethyl]-2-methyl-1-piperazinyl][5-(4-methoxyphenyl)-6-methyl-7-(trifluoromethyl)pyrazolo[1,5-α]pyrimidin-3-yl]-]	> 6.00	> 6.00
COc1ccc(-c2nc3c(C(=O)N4CCN(C(CO)c5cc(OC)ccc5OC)C[C@H]4C)cnn3c(C(F)(F)F)c2C)cc1 (stereo partly drawn) [methanone, [(2R)-4-[1-(2,5-dimethoxyphenyl)-2-hydroxyethyl]-2-methyl-1-piperazinyl][5-(4-methoxyphenyl)-6-methyl-7-(trifluoromethyl)pyrazolo[1,5-α]pyrimidin-3-yl]-]	5.00 to 5.96	> 6.00
COc1ccc(-c2nc3c(C(=O)N4CCN(C(CO)c5c(F)ccc(OC)c5F)C[C@H]4C)cnn3c(C(F)(F)F)c2C)cc1 (stereo partly drawn) [methanone, [(2R)-4-[1-(2,6-difluoro-3-methoxyphenyl)-2-hydroxyethyl]-2-methyl-1-piperazinyl][5-(4-methoxyphenyl)-6-methyl-7-(trifluoromethyl)pyrazolo[1,5-α]pyrimidin-3-yl]-]	> 6.00	> 6.00
